Measurements reported in patent US10597388B2, “Pyridazinone herbicides” (FMC CORPORATION, priority 2014, dated 2020).

Key:
Assay in all cases: Test D controlled growth environment herbicide test, pre- and postemergence
Format in all cases: in vivo
[1] = test system: lambsquarters (Chenopodium album)
Procedure, shortened: (§1)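 Pre-emergence: seeds sown in silt loam soil were sprayed with compound in a non-phytotoxic solvent mix containing surfactant. Post-emergence: plants at 2 to 18 cm (1- to 4-leaf stage) in peat moss/vermiculite medium got the same formulation. Visual 0–100 rating versus controls after 14 to 21 d.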

[2] = test system: foxtail, green (green foxtail, Setaria viridis)
Procedure, shortened: as §1

[3] = test system: barley, winter (winter barley, Hordeum vulgare)
Procedure, shortened: as §1

[4] = test system: blackgrass (Alopecurus myosuroides)
Procedure, shortened: as §1

[5] = test system: windgrass (Apera spica-venti)
Procedure, shortened: as §1

[6] = test system: canarygrass (Phalaris minor)
Procedure, shortened: as §1

[7] = test system: wheat, spring (spring wheat, Triticum aestivum)
Procedure, shortened: as §1

[8] = test system: pigweed (Amaranthus retroflexus)
Procedure, shortened: as §1

[9] = test system: ryegrass, Italian (Italian ryegrass, Lolium multiflorum)
Procedure, shortened: as §1

[10] = test system: bluegrass (annual bluegrass, Poa annua)
Procedure, shortened: as §1

[11] = test system: galium (catchweed bedstraw, Galium aparine)
Procedure, shortened: as §1

[12] = test system: bromegrass, downy (downy bromegrass, Bromus tectorum)
Procedure, shortened: as §1

[13] = test system: buckwheat, wild (wild buckwheat, Polygonum convolvulus)
Procedure, shortened: as §1

[14] = Postemergence, 31 g ai/ha, scale 0 to 100 (0 no effect, 100 complete control)
[15] = Postemergence, 125 g ai/ha, visual rating on scale 0 (no effect) to 100 (complete control), 14 to 21 d
[16] = Postemergence, 250 g ai/ha, scale 0 to 100 (0 no effect, 100 complete control)
[17] = Preemergence, 62 g ai/ha, scale 0 to 100 (0 no effect, 100 complete control)
[18] = Preemergence, 125 g ai/ha, scale 0 to 100 (0 no effect, 100 complete control)
[19] = Preemergence, 250 g ai/ha, scale 0 to 100, 0 no effect, 100 complete control
[20] = postemergence, 62 g ai/ha, scale 0 to 100, 0 no effect, 100 complete control

Cn1nc(Br)c(O)c(-c2cccc3ccccc23)c1=O [Compound 20]
100: Plant response rating, Lambsquarters [1, 18] | Plant response rating, Lambsquarters [1, 19] | Plant response rating, Pigweed [8, 15] | Plant response rating, Pigweed [8, 16] | Plant response rating, Pigweed [8, 18] | Plant response rating, Pigweed [8, 19] | Plant response rating, Pigweed [8, 20] | Plant response rating, Ryegrass, Italian [9, 17] | Plant response rating, Ryegrass, Italian [9, 18] | Plant response rating, Ryegrass, Italian [9, 19] | Plant response rating, Galium [11, 15] | Plant response rating, Galium [11, 16] | Plant response rating, Buckwheat, Wild [13, 15] | Plant response rating, Buckwheat, Wild [13, 16] | Plant response rating, Buckwheat, Wild [13, 18] | Plant response rating, Buckwheat, Wild [13, 19] | Plant response rating, Buckwheat, Wild [13, 20]
20: Plant response rating (scale of 0 to 100), Blackgrass ([4]; Preemergence, 31 g ai/ha) | Plant response rating, Wheat, Spring [7, 16] | Plant response rating, Buckwheat, Wild [13, 17]
0: Plant response rating, Barley, Winter [3, 14] | Plant response rating, Barley, Winter [3, 15] | Plant response rating, Barley, Winter [3, 16] | Plant response rating (scale of 0 to 100), Barley, Winter ([3]; Preemergence, 31 g ai/ha) | Plant response rating, Barley, Winter [3, 17] | Plant response rating, Barley, Winter [3, 18] | Barley, Winter plant response rating [3, 19] | Plant response rating, Barley, Winter [3, 20] | Wheat, Spring plant response rating [7, 14] | Plant response rating (scale of 0 to 100), Wheat, Spring ([7]; Preemergence, 31 g ai/ha) | Bromegrass, Downy plant response rating [12, 14]
10: Canarygrass plant response rating [6, 14] | Bluegrass plant response rating [10, 14] | Plant response rating (scale of 0 to 100), Bluegrass ([10]; Preemergence, 31 g ai/ha) | Plant response rating (scale of 0 to 100), Galium ([11]; Preemergence, 31 g ai/ha) | Plant response rating, Bromegrass, Downy [12, 15] | Plant response rating, Bromegrass, Downy [12, 20]
75: Plant response rating (scale of 0 to 100), Lambsquarters ([1]; Preemergence, 31 g ai/ha) | Plant response rating, Foxtail, Green [2, 18] | Blackgrass plant response rating [4, 19] | Plant response rating, Galium [11, 18] | Plant response rating, Galium [11, 20]
30: Plant response rating, Windgrass [5, 15] | Plant response rating, Windgrass [5, 20] | Plant response rating, Canarygrass [6, 20] | Plant response rating (scale of 0 to 100), Pigweed ([8]; Preemergence, 31 g ai/ha) | Plant response rating, Bluegrass [10, 15] | Plant response rating, Galium [11, 17]
45: Plant response rating, Canarygrass [6, 15] | Plant response rating, Wheat, Spring [7, 19] | Plant response rating, Bromegrass, Downy [12, 19]
50: Plant response rating, Blackgrass [4, 15] | Plant response rating, Windgrass [5, 18]
70: Plant response rating, Foxtail, Green [2, 16] | Plant response rating, Canarygrass [6, 18] | Plant response rating, Ryegrass, Italian [9, 20] | Galium plant response rating [11, 14]
90: Plant response rating, Lambsquarters [1, 15] | Plant response rating, Lambsquarters [1, 17] | Plant response rating, Ryegrass, Italian [9, 16] | Plant response rating (scale of 0 to 100), Ryegrass, Italian ([9]; Preemergence, 31 g ai/ha)
15: Foxtail, Green plant response rating [2, 14] | Blackgrass plant response rating [4, 14] | Plant response rating, Wheat, Spring [7, 15] | Plant response rating, Wheat, Spring [7, 17] | Plant response rating, Wheat, Spring [7, 20] | Plant response rating, Bluegrass [10, 17] | Plant response rating, Bromegrass, Downy [12, 16] | Plant response rating (scale of 0 to 100), Bromegrass, Downy ([12]; Preemergence, 31 g ai/ha) | Plant response rating (scale of 0 to 100), Buckwheat, Wild ([13]; Preemergence, 31 g ai/ha)
95: Plant response rating, Lambsquarters [1, 16]
80: Plant response rating, Canarygrass [6, 19] | Pigweed plant response rating [8, 14] | Plant response rating, Ryegrass, Italian [9, 15] | Buckwheat, Wild plant response rating [13, 14]
55: Plant response rating, Canarygrass [6, 16] | Ryegrass, Italian plant response rating [9, 14]
35: Plant response rating, Foxtail, Green [2, 20] | Plant response rating (scale of 0 to 100), Windgrass ([5]; Preemergence, 31 g ai/ha) | Plant response rating, Canarygrass [6, 17] | Bluegrass plant response rating [10, 19] | Plant response rating, Bromegrass, Downy [12, 17]
40: Plant response rating, Foxtail, Green [2, 15] | Plant response rating, Blackgrass [4, 17] | Plant response rating, Blackgrass [4, 20] | Plant response rating, Windgrass [5, 16] | Plant response rating, Windgrass [5, 17] | Plant response rating, Pigweed [8, 17] | Plant response rating, Bluegrass [10, 16] | Plant response rating, Bromegrass, Downy [12, 18]
60: Plant response rating, Foxtail, Green [2, 17] | Plant response rating, Blackgrass [4, 16] | Plant response rating, Blackgrass [4, 18] | Plant response rating, Windgrass [5, 19]
85: Lambsquarters plant response rating [1, 14] | Plant response rating, Lambsquarters [1, 20] | Plant response rating, Foxtail, Green [2, 19] | Plant response rating, Galium [11, 19]
25: Plant response rating (scale of 0 to 100), Foxtail, Green ([2]; Preemergence, 31 g ai/ha) | Windgrass plant response rating [5, 14] | Plant response rating (scale of 0 to 100), Canarygrass ([6]; Preemergence, 31 g ai/ha) | Plant response rating, Wheat, Spring [7, 18] | Plant response rating, Bluegrass [10, 18] | Plant response rating, Bluegrass [10, 20]

Cc1cc(C)c2ccccc2c1-c1c(O)c(C)nn(C)c1=O [Compound 21]
35: Plant response rating, Bluegrass [10, 15]
60: Plant response rating, Bromegrass, Downy [12, 20]
95: Plant response rating, Lambsquarters [1, 16] | Plant response rating, Foxtail, Green [2, 16] | Plant response rating, Canarygrass [6, 16]
10: Plant response rating, Barley, Winter [3, 20]
75: Plant response rating, Bromegrass, Downy [12, 15]
0: Plant response rating, Barley, Winter [3, 14]
30: Plant response rating, Barley, Winter [3, 15] | Plant response rating, Wheat, Spring [7, 20] | Plant response rating, Bluegrass [10, 20]
90: Plant response rating, Lambsquarters [1, 15] | Plant response rating, Blackgrass [4, 16] | Plant response rating, Pigweed [8, 15]
100: Galium plant response rating [11, 14] | Plant response rating, Galium [11, 15] | Plant response rating, Galium [11, 16] | Plant response rating, Galium [11, 20] | Buckwheat, Wild plant response rating [13, 14] | Plant response rating, Buckwheat, Wild [13, 15] | Plant response rating, Buckwheat, Wild [13, 16] | Plant response rating, Buckwheat, Wild [13, 20]
50: Plant response rating, Wheat, Spring [7, 16] | Plant response rating, Bluegrass [10, 16]
98: Plant response rating, Pigweed [8, 16]
85: Plant response rating, Lambsquarters [1, 20] | Plant response rating, Foxtail, Green [2, 15] | Plant response rating, Blackgrass [4, 15] | Plant response rating, Blackgrass [4, 20] | Plant response rating, Windgrass [5, 15] | Plant response rating, Windgrass [5, 16] | Plant response rating, Canarygrass [6, 15] | Plant response rating, Pigweed [8, 20] | Plant response rating, Ryegrass, Italian [9, 15]
40: Plant response rating, Barley, Winter [3, 16] | Plant response rating, Wheat, Spring [7, 15]
70: Foxtail, Green plant response rating [2, 14] | Windgrass plant response rating [5, 14]
20: Wheat, Spring plant response rating [7, 14] | Bluegrass plant response rating [10, 14]
45: Bromegrass, Downy plant response rating [12, 14]
80: Lambsquarters plant response rating [1, 14] | Plant response rating, Foxtail, Green [2, 20] | Blackgrass plant response rating [4, 14] | Plant response rating, Windgrass [5, 20] | Canarygrass plant response rating [6, 14] | Plant response rating, Canarygrass [6, 20] | Pigweed plant response rating [8, 14] | Ryegrass, Italian plant response rating [9, 14] | Plant response rating, Ryegrass, Italian [9, 16] | Plant response rating, Ryegrass, Italian [9, 20] | Plant response rating, Bromegrass, Downy [12, 16]
